Bridge positions count the residues as written; N and C are the ends. Square brackets hold non-standard residues; d marks the D form. Peptide text beside a SMILES is read from it. * marks the point of attachment. Picolinoyl(3-OH) = O=C(c1ncccc1O)*; Phg = N[CH](C(=O)O)c1ccccc1; Abu = CC[CH](N)C(=O)O; Dap = NC[CH](N)C(=O)O

The subject of data set [1] is E. coli BAS901/pUCVgb. Description: disk assay, zone of growth inhibition. Type of data set: cell-based, Escherichia coli. Particulars: Vgb constitutively expressed. From the text: (§1) A hyperpermeable E. coli strain, E. coli BAS901, harboring a plasmid constitutively expressing Vgb was created for in vivo studies. The plasmids pVGB, described previously in [14], and […] were digested with Xbal and BamHI, to yield an approximately 1 kb fragment containing a ribosomal binding site upstream of vgb, and linearized pUC19 backbone, respectively. The vgb fragment was then subcloned into the linearized pUC19 backbone downstream of pLac yielding pUC19-VGB. Both pUC19-VGB and pUC19 were transformed E. coli BAS901.
(§2) The antibiotic activity of the peptides synthesized in this study was initially assayed using a disk assay where samples were applied to sterile paper disks placed on a fresh lawn of bacterial culture on appropriate agar plates as required by the organism. These were then incubated for 16 hr at 37° C. and the zone of growth inhibition surrounding the disks recorded. For quantitative assessment of antibiotic activity in liquid culture, the minimal inhibitory concentration (MIC) of peptides was determined by serial dilution studies. The peptides and standard antibiotics were dissolved in DMSO and the final concentration of DMSO in the liquid cultures was 5%. Both S. aureus RN4220 and E. coli BAS901 were able to grow efficiently at this level of DMSO.
(§3) Crude material from the initial synthesis reactions was used to test the potential of the analogues as antibiotics in susceptibility assays where a solution of the compound was placed on a paper disk on a lawn of bacteria. As described above, E. coli BAS901 is deficient in the Imp/OstA protein, an outer membrane protein, involved in cell envelope biogenesis (1, 5). […] The antibiotic activity of the peptides synthesized in this study was initially assayed using a disk assay where samples were applied to sterile paper disks placed on a fresh lawn of bacterial culture on Tryptic Soya, Luria Broth, or Brain Heart Infusion Agar plates. These were then incubated for 16 hrs at 37° C. and the zone of growth inhibition surrounding the disks recorded.

For data set [2], the system named is E. coli BAS901/pUC19. Description: disk assay, zone of growth inhibition. The format is cell-based, Escherichia coli.
From the text: as §1, §2, §3

For data set [3], the system named is in vitro translation. Description: In Vitro Translation Assay. The format is biochemical. Particulars: FIG. 6; 15 min preincubation, 1 hr at 37° C., 5% DMSO; concentration not given. Here is the method: Inhibition of translation was monitored using an ActivePro In Vitro Translation Kit from Ambion. Briefly, a reaction mixture was prepared as per the manufacturer's instructions that contained all of the constituents necessary (including [^35S]-methionine) except for DNA template. These mixtures were then preincubated for 15 min at room temperature in the presence or absence of various antibiotics. Subsequent to the preincubation period, a control template containing a chloramphenicol acetyltransferase gene under control of a bacteriophage T7 promoter was added and the reaction carried out for 1 hr at 37° C. Due to the insoluble nature of some of the antibiotics, the final DMSO concentration in each reaction including controls was maintained at 5% (v/v). Aliquots were taken after 1 hr, and separated on SDS polyacrylamide gels. The efficiency of translation of ^35S-labeled […] was analyzed and quantified using a Typhoon 9200 variable mode imager (Image-Quant 5.2 software).

For data set [4], the system named is Human red blood cells. Description: Hemolysis Assay. Type of data set: cell-based. Particulars: 3 and 9 hr at 37° C., A412 of supernatant, gramicidin 30 μg/ml. Here is the method: Human red blood cells were freshly harvested, washed with 0.85% saline solution with 5 mM EDTA and resuspended in the same solution to an A412 of 0.6. The hemolysis assay was performed in 1.5 ml Eppendorf tubes with the addition of either 5 in DMSO, saline, gramicidin (final concentration 30 μg/ml), or DMSO (5% final), for both 3 and 9 hr at 37° C. with occasion gentle mixing. The mixtures were then centrifuged and the A412 of the supernatant measured.

Turning to `CCC1NC(=O)C(NC(=O)c2ncccc2O)CNC(=O)C(c2ccccc2)NC(=O)C2CCCN2C(=O)C(Cc2ccccc2)NC(=O)C2CCCN2C1=O` (stereo not drawn) [Compound 8] ({Picolinoyl(3-OH)}-[Dap][Abu]PFP[Phg]; lactam 1-C; configuration not given here), the “Zone of Inhibition” value is “n.i” in data set [1]; “no antibacterial activity and n.i” in data set [2].

For `O=C(N[C@H](CO)[C@H](O)c1ccc([N+](=O)[O-])cc1)C(Cl)Cl` [chloramphenicol], the “inhibition of in vitro translation” value in data set [3] is reported as “did block”.

With `CCN(CC)CCS(=O)(=O)[C@@H]1CCN2C(=O)c3coc(n3)CC(=O)C[C@H](O)/C=C(C)/C=C/CNC(=O)/C=C/[C@@H](C)[C@@H](C(C)C)OC(=O)[C@@H]12` [dalfopristin], the “inhibition of in vitro translation” value in data set [3] is recorded as “did block”.

With `CC[C@H]1OC(=O)[C@H](C)[C@@H](O[C@H]2C[C@@](C)(OC)[C@@H](O)[C@H](C)O2)[C@H](C)[C@@H](O[C@@H]2O[C@H](C)C[C@H](N(C)C)[C@H]2O)[C@](C)(O)C[C@@H](C)C(=O)[C@H](C)[C@@H](O)[C@]1(C)O` [erythromycin], in data set [3], the “inhibition of in vitro translation” value is reported as “did block”.

Take gramicidin S: the hemolytic activity entry in data set [4] was “lysed cells rapidly”.
